From US6436963B1 (priority 1998, dated 2002)

Experiments:
Assay type in all cases: in vivo
[1] = test system: Erysiphe graminis; assay: Powdery Mildew of Wheat (ERYSGT), protectant spray test on wheat seedlings; details: wheat (cultivar Monon), sprayed to run off at 100 ppm, inoculated after 24 hours
[2] = test system: Puccinia recondita; assay: Brown Rust (PUCCRT), protectant spray test on wheat seedlings; details: wheat (cultivar Monon), sprayed to run off at 100 ppm, inoculated after 24 hours
[3] = test system: Leptosphaeria nodorum; assay: Glume Blotch of Wheat (LEPTNO), protectant spray test on wheat seedlings; details: wheat (cultivar Monon), sprayed to run off at 100 ppm, inoculated after 24 hours
[4] = test system: Phytophthora infestans; details: tomatoes (cultivar Rutgers), sprayed to run off at 100 ppm, inoculated after 24 hours

SMILES | ERYSGT control of plant disease [1] | PUCCRT control of plant disease [2] | LEPTNO control of plant disease [3] | PHYTIN control of plant disease [4]
CNC(=O)C(=NOC)c1ccccc1COc1ncc(C(OC(C)=O)c2ccc(C)cc2)cc1Cl (stereo not shown) [Example 71] | ++ (++ = 75-100% control of plant disease) | ++ (++ = 75-100% control of plant disease) | ++ (++ = 75-100% control of plant disease) | ++ (++ = 75-100% control of plant disease)
CCC(OC(C)=O)c1cnc(OCc2ccccc2C(=NOC)C(=O)NC)c(Cl)c1 (stereo not shown) [Example 91] | ++ (++ = 75-100% control of plant disease) | ++ (++ = 75-100% control of plant disease) | ++ (++ = 75-100% control of plant disease) | ++ (++ = 75-100% control of plant disease)
CNC(=O)C(=NOC)c1ccccc1COc1ncc(C(OC)c2ccccc2F)cc1Cl (stereo not shown) [Example 99] | ++ (++ = 75-100% control of plant disease) | ++ (++ = 75-100% control of plant disease) | ++ (++ = 75-100% control of plant disease) | − (− = 0-24% control of plant disease)
CNC(=O)C(=NOC)c1ccccc1COc1ncc(C(O)c2ccc3ccccc3c2)cc1Cl (racemic) [Example 49] | ++ (++ = 75-100% control of plant disease) | ++ (++ = 75-100% control of plant disease) | ++ (++ = 75-100% control of plant disease) | ++ (++ = 75-100% control of plant disease)
CNC(=O)C(=NOC)c1ccccc1COc1ncc(C(O)c2cccc(C)c2)cc1Cl (stereo not shown) [Example 84] | ++ (++ = 75-100% control of plant disease) | ++ (++ = 75-100% control of plant disease) | − (− = 0-24% control of plant disease) | ++ (++ = 75-100% control of plant disease)
CNC(=O)C(=NOC)c1ccccc1COc1ncc(C(O)c2ccc(Oc3ccccc3)cc2)cc1Cl (stereo not shown) [Example 100] | ++ (++ = 75-100% control of plant disease) | ++ (++ = 75-100% control of plant disease) | ++ (++ = 75-100% control of plant disease) | ++ (++ = 75-100% control of plant disease)
CNC(=O)C(=NOC)c1ccccc1COc1ncc(C(O)c2cccc(F)c2)cc1Cl (stereo not shown) [Example 93] | ++ (++ = 75-100% control of plant disease) | ++ (++ = 75-100% control of plant disease) | ++ (++ = 75-100% control of plant disease) | ++ (++ = 75-100% control of plant disease)
CNC(=O)C(=NOC)c1ccccc1COc1ncc(C(O)c2ccsc2)cc1Cl (stereo not shown) [Example 109] | ++ (++ = 75-100% control of plant disease) | ++ (++ = 75-100% control of plant disease) | ++ (++ = 75-100% control of plant disease) | ++ (++ = 75-100% control of plant disease)
CNC(=O)C(=NOC)c1ccccc1COc1ncc(C2(c3ccccc3)COC(C)(C)O2)cc1Cl (stereo not shown) [Example 123] | ++ (++ = 75-100% control of plant disease) | ++ (++ = 75-100% control of plant disease) | ++ (++ = 75-100% control of plant disease) | ++ (++ = 75-100% control of plant disease)
CNC(=O)C(=NOC)c1ccccc1COc1ncc(C(C)OC(=O)C(C)(C)C)cc1Cl (racemic) [Example 24] | ++ (++ = 75-100% control of plant disease) | ++ (++ = 75-100% control of plant disease) | ++ (++ = 75-100% control of plant disease) | − (− = 0-24% control of plant disease)
CNC(=O)C(=NOC)c1ccccc1COc1ncc(C(OC=O)c2ccccc2)cc1Cl (racemic) [Example 54] | ++ (++ = 75-100% control of plant disease) | ++ (++ = 75-100% control of plant disease) | ++ (++ = 75-100% control of plant disease) | ++ (++ = 75-100% control of plant disease)
CNC(=O)C(=NOC)c1ccccc1COc1ncc(C(O)c2ccc(Cl)cc2)cc1Cl (racemic) [Example 9] | ++ (++ = 75-100% control of plant disease) | ++ (++ = 75-100% control of plant disease) | ++ (++ = 75-100% control of plant disease) | ++ (++ = 75-100% control of plant disease)
CNC(=O)C(=NOC)c1ccccc1COc1ncc(C(OC(C)=O)c2ccc3ccccc3c2)cc1Cl (stereo not shown) [Example 83] | ++ (++ = 75-100% control of plant disease) | ++ (++ = 75-100% control of plant disease) | ++ (++ = 75-100% control of plant disease) | ++ (++ = 75-100% control of plant disease)
CNC(=O)C(=NOC)c1ccccc1COc1ncc(C(OC(C)=O)c2cccc(C)c2)cc1Cl (stereo not shown) [Example 106] | ++ (++ = 75-100% control of plant disease) | ++ (++ = 75-100% control of plant disease) | ++ (++ = 75-100% control of plant disease) | ++ (++ = 75-100% control of plant disease)
CNC(=O)C(=NOC)c1ccccc1COc1ncc(C(OC(C)=O)c2ccccc2F)cc1Cl (stereo not shown) [Example 82] | ++ (++ = 75-100% control of plant disease) | ++ (++ = 75-100% control of plant disease) | ++ (++ = 75-100% control of plant disease) | ++ (++ = 75-100% control of plant disease)
CCCC(=O)OC(c1ccccc1)c1cnc(OCc2ccccc2C(=NOC)C(=O)NC)c(Cl)c1 (racemic) [Example 47] | ++ (++ = 75-100% control of plant disease) | ++ (++ = 75-100% control of plant disease) | ++ (++ = 75-100% control of plant disease) | ++ (++ = 75-100% control of plant disease)
CNC(=O)C(=NOC)c1ccccc1COc1ncc(C(O)c2cccc(C(F)(F)F)c2)cc1Cl (racemic) [Example 12] | ++ (++ = 75-100% control of plant disease) | ++ (++ = 75-100% control of plant disease) | ++ (++ = 75-100% control of plant disease) | ++ (++ = 75-100% control of plant disease)
CNC(=O)C(=NOC)c1ccccc1COc1ncc(C(OC(=O)N(C)C)c2ccccc2)cc1Cl (racemic) [Example 45] | ++ (++ = 75-100% control of plant disease) | ++ (++ = 75-100% control of plant disease) | ++ (++ = 75-100% control of plant disease) | ++ (++ = 75-100% control of plant disease)
CNC(=O)C(=NOC)c1ccccc1COc1ncc(C(OC(=O)C(C)C)c2ccccc2)cc1Cl (racemic) [Example 32] | − (− = 0-24% control of plant disease) | ++ (++ = 75-100% control of plant disease) | − (− = 0-24% control of plant disease) | − (− = 0-24% control of plant disease)
CNC(=O)C(=NOC)c1ccccc1COc1cc(OC)c(C(OC)c2cccc(C)c2)cn1 (stereo not shown) [Example 115] | + (+ = 25-74% control of plant disease) | ++ (++ = 75-100% control of plant disease) | ++ (++ = 75-100% control of plant disease) | − (− = 0-24% control of plant disease)
CNC(=O)C(=NOC)c1ccccc1COc1ncc(C(C)OCc2ccccc2)cc1Cl (racemic) [Example 52] | ++ (++ = 75-100% control of plant disease) | ++ (++ = 75-100% control of plant disease) | ++ (++ = 75-100% control of plant disease) | − (− = 0-24% control of plant disease)
CNC(=O)C(=NOC)c1ccccc1COc1ncc(C(OC(C)=O)c2ccsc2)cc1Cl (stereo not shown) [Example 121] | ++ (++ = 75-100% control of plant disease) |  |  | ++ (++ = 75-100% control of plant disease)
CCOC(C)(c1ccccc1)c1cnc(OCc2ccccc2C(=NOC)C(=O)NC)c(Cl)c1 (stereo not shown) [Example 122] | ++ (++ = 75-100% control of plant disease) |  |  | − (− = 0-24% control of plant disease)
